Numbered stars: 1 amine (or outer) side, 2 acyl side, 3 side chain; on linkers, the order of the positions; unused ones are H or OH. Bridge positions count the residues as written; N and C are the ends. Square brackets hold non-standard residues; d marks the D form. Peptide text beside a SMILES is read from it. ξ: configuration not given here. Trp(5-F) = N[C@@H](Cc1c[nH]c2ccc(F)cc12)C(=O)O; Asp(3,3-Me2) = CC(C)(C(=O)O)[C@H](N)C(=O)O; X9 = O=C(CCCCCSCc1ccc(CSCCN[*:1])cc1)[*:2]; Phe(3-Cl) = N[C@@H](Cc1cccc(Cl)c1)C(=O)O; Phe(4-Cl) = N[C@@H](Cc1ccc(Cl)cc1)C(=O)O; αMeW = C[C@](N)(Cc1c[nH]c2ccccc12)C(=O)O; X1 = O=C(CCSCc1cccc(CSCCN[*:1])c1)[*:2]; 1Nal = N[C@@H](Cc1cccc2ccccc12)C(=O)O; Tiq1c(1S) = O=C(O)[C@H]1NCCc2ccccc21; mXylylene = c1cc(C[*:1])cc(C[*:2])c1; Igl = N[C@H](C(=O)O)C1Cc2ccccc2C1; NMeF = CN[C@@H](Cc1ccccc1)C(=O)O; 3Pal = N[C@@H](Cc1cccnc1)C(=O)O; 4Pal = N[C@@H](Cc1ccncc1)C(=O)O; Tle = CC(C)(C)[C@H](N)C(=O)O; αMeP = C[C@@]1(C(=O)O)CCCN1; ΔPro = O=C(O)[C@@H]1C=CCN1; Pip = O=C(O)[C@@H]1CCCCN1; Nva = CCC[C@H](N)C(=O)O; Thp = NC1(C(=O)O)CCOCC1; Aib = CC(C)(N)C(=O)O; ξP = O=C(O)C1CCCN1; Mpa = O=C(O)CCS
These compounds were tested against human PCSK9 / human LDLR EGFa domain (Homo sapiens, UniProt Q8NBP7) (assay: TR-FRET assay of inhibition of the PCSK9-LDLR protein-protein interaction). Conditions: 20 nM human PCSK9, 20 nM human LDLR EGFa domain, 2 hours room temperature.
Type: binding
Procedure: A time-resolved fluorescence resonance energy (TR-FRET) assay was used to measure inhibition of the PCSK9-LDLR protein-protein interaction. Briefly, 20 nM avitag-biotinylated human PCSK9 was incubated with 20 nM his-tagged human LDLR EGFa domain in the presence of 5 nM LANCE Ulight Streptavidin (Perkin Elmer) and 5 nM europium-Anti-6×His (Perkin Elmer) for 2 hours covered at room temperature in buffer containing 50 mM HEPES, 150 mM NaCl, 5 mM CaCl2), 0.01% BSA and 0.01% Surfactant P20. Compounds were tested in dose-response and concentrations giving half-maximal inhibition calculated using a 4-parameter fit equation.

Sequence of human PCSK9 / human LDLR EGFa domain (Q8NBP7 153-692): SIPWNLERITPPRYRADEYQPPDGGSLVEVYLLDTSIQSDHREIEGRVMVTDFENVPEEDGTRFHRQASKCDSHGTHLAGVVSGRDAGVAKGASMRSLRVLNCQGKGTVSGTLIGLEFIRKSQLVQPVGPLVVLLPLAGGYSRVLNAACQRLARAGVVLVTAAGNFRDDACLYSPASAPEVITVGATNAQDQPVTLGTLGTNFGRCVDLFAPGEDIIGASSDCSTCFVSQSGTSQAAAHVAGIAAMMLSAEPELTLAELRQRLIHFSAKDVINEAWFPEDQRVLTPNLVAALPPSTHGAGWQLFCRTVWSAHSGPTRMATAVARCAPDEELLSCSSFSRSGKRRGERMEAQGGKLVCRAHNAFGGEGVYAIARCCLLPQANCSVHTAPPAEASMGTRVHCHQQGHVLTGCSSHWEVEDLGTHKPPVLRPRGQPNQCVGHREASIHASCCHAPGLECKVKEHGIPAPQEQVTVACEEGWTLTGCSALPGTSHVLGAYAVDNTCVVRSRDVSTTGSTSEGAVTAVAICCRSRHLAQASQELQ

| IC50 [µM] | SMILES |
| --- | --- |
| 21 to 50 | C[C@@H]1NC(=O)CCSCc2cccc(c2)CSCCNC(=O)[C@@H]2CCCN2C(=O)[C@H](Cc2ccc(O)cc2)NC(=O)[C@H](C)NC(=O)[C@@H]2c3ccccc3CCN2C(=O)[C@H](Cc2c[nH]c3ccc(F)cc23)NC(=O)[C@H](Cc2c[nH]c3ccccc23)NC(=O)[C@@H](C)NC1=O [Compound 092] (cyclo(AYP[X1]A[dA]W[Trp(5-F)][Tiq1c(1S)])) |
| 1 to 12.1 | C[C@@H]1NC(=O)[C@@H]2CCCN2C(=O)[C@](C)(Cc2c[nH]c3ccccc23)NC(=O)[C@H](Cc2c[nH]c3ccc(F)cc23)NC(=O)CNC(=O)[C@H](CCCCN)NC(=O)CCSCc2cccc(c2)CSC[C@@H](C(N)=O)NC(=O)[C@@H]2CCCN2C(=O)[C@H](Cc2ccc(O)cc2)NC1=O [Compound 023] ([Mpa]KG[Trp(5-F)][αMeW]PAYPC-NH2; linker 1-10 via mXylylene) |
| 1 to 12.1 | C[C@@H]1NC(=O)CCSCc2cccc(c2)CSCCNC(=O)[C@@H]2CCCN2C(=O)[C@H](Cc2cccc3ccccc23)NC(=O)[C@H](C)NC(=O)[C@@H]2CCCN2C(=O)[C@H](Cc2c[nH]c3ccc(F)cc23)NC(=O)[C@H](Cc2cccc3ccccc23)NC(=O)[C@@H](C)NC1=O [Compound 080] (cyclo([1Nal]P[X1]A[dA][1Nal][Trp(5-F)]PA)) |
| 0.1 to 1 | CC(C)(C(=O)O)[C@@H]1NC(=O)[C@H](Cc2c[nH]c3ccc(F)cc23)NC(=O)[C@H](Cc2c[nH]c3ccc(F)cc23)NC(=O)CNC(=O)[C@H](CCCCN)NC(=O)CCSCc2cccc(c2)CSC[C@@H](C(N)=O)NC(=O)[C@]2(C)CCCN2C(=O)[C@H](Cc2ccc(O)cc2)NC(=O)[C@H](Cc2cnc[nH]2)NC1=O [Compound 115] ([Mpa]KG[Trp(5-F)][Trp(5-F)][Asp(3,3-Me2)]HY[αMeP]C-NH2; linker 1-10 via mXylylene) |
| 21 to 50 | C[C@@H]1NC(=O)[C@@H]2CCCN2C(=O)[C@H](Cc2cccnc2)NC(=O)[C@H](Cc2c[nH]c3ccc(F)cc23)NC(=O)CNC(=O)[C@H](CCCCN)NC(=O)CCSCc2cccc(c2)CSC[C@@H](C(N)=O)NC(=O)[C@@H]2CCCN2C(=O)[C@H](Cc2ccc(O)cc2)NC1=O [Compound 020] ([Mpa]KG[Trp(5-F)][3Pal]PAYPC-NH2; linker 1-10 via mXylylene) |
| 21 to 50 | C[C@@H]1NC(=O)CCSCc2cccc(c2)CSCCNC(=O)[C@@H]2CCCN2C(=O)[C@H](Cc2ccc(O)cc2)NC(=O)[C@H](C)NC(=O)[C@@H]2CCCN2C(=O)[C@H](Cc2c[nH]c3ccc(F)cc23)NC(=O)[C@H](Cc2c[nH]c3ccc(F)cc23)NC(=O)[C@@H](C)NC1=O [Compound 058] (cyclo(AYP[X1]A[dA][Trp(5-F)][Trp(5-F)]P)) |
| 0.1 to 1 | COc1ccc(C[C@@H]2NC(=O)[C@H](Cc3c[nH]c4ccc(F)cc34)NC(=O)CNC(=O)[C@H](CCCCN)NC(=O)CCSCc3cccc(c3)CSC[C@@H](C(N)=O)NC(=O)[C@@H]3CCCN3C(=O)[C@H](Cc3ccc(O)cc3)NC(=O)[C@H](C)NC(=O)[C@@H]3CCCN3C2=O)cc1 [Compound 018] ([Mpa]KG[Trp(5-F)]Y(Me)PAYPC-NH2; linker 1-10 via mXylylene) |
| 0.1 to 1 | C[C@@H]1NC(=O)[C@@H]2CCCN2C(=O)[C@H](Cc2ccncc2)NC(=O)[C@H](Cc2c[nH]c3ccc(F)cc23)NC(=O)CNC(=O)[C@H](CCCCN)NC(=O)CCSCc2cccc(c2)CSC[C@@H](C(N)=O)NC(=O)[C@@H]2CCCN2C(=O)[C@H](Cc2ccc(O)cc2)NC1=O [Compound 021] ([Mpa]KG[Trp(5-F)][4Pal]PAYPC-NH2; linker 1-10 via mXylylene) |
| 0.1 to 1 | C[C@@H]1NC(=O)[C@@H]2CCCN2C(=O)[C@H](Cc2cccc(Cl)c2)NC(=O)[C@H](Cc2c[nH]c3ccc(F)cc23)NC(=O)CNC(=O)[C@H](CCCCN)NC(=O)CCSCc2cccc(c2)CSC[C@@H](C(N)=O)NC(=O)[C@@H]2CCCN2C(=O)[C@H](Cc2ccc(O)cc2)NC1=O [Compound 005] ([Mpa]KG[Trp(5-F)][Phe(3-Cl)]PAYPC-NH2; linker 1-10 via mXylylene) |
| 0.001 to 0.1 | C[C@H]1NC(=O)[C@H]2CCCN2C(=O)[C@H](Cc2c[nH]c3ccc(F)cc23)NC(=O)[C@H](Cc2c[nH]c3ccc(F)cc23)NC(=O)CNC(=O)[C@H](CCCCN)NC(=O)CCSCc2cccc(c2)CSCCNC(=O)C2CCCN2C(=O)[C@H](Cc2ccc(O)cc2)NC1=O (some centres unmarked) [Compound 040] (cyclo(G[Trp(5-F)][Trp(5-F)][dP][dA]Y[ξP][X1]K)) |
| 0.1 to 1 | C[C@@H]1NC(=O)[C@@H]2CCCN2C(=O)[C@H](Cc2c[nH]c3ccc(F)cc23)NC(=O)[C@H](Cc2c[nH]c3ccc(F)cc23)NC(=O)[C@@H](C)NC(=O)[C@@H]2CCCN2C(=O)CCSCc2cccc(c2)CSCCNC(=O)[C@@H]2CCCN2C(=O)[C@H](Cc2ccccc2)NC1=O [Compound 057] (cyclo(AFP[X1]P[dA][Trp(5-F)][Trp(5-F)]P)) |
| 21 to 50 | C[C@@H]1NC(=O)CCSCc2cccc(c2)CSC[C@@H](C(N)=O)NC(=O)[C@@H]2CCCN2C(=O)[C@H](Cc2ccc(Cl)cc2)NC(=O)[C@H](C)NC(=O)[C@@H]2CCCN2C(=O)[C@H](Cc2c[nH]c3ccc(F)cc23)NC(=O)[C@H](Cc2c[nH]c3ccc(F)cc23)NC(=O)[C@@H](C)NC1=O [Compound 083] ([Mpa]A[dA][Trp(5-F)][Trp(5-F)]PA[Phe(4-Cl)]PC-NH2; linker 1-10 via mXylylene) |
| 1 to 12.1 | CCC[C@@H]1NC(=O)CCSCc2cccc(c2)CSCCNC(=O)[C@@H]2CCCN2C(=O)[C@H](Cc2ccc(O)cc2)NC(=O)[C@H](C)NC(=O)[C@@H]2CCCN2C(=O)[C@H](Cc2c[nH]c3ccc(F)cc23)NC(=O)[C@H](Cc2c[nH]c3ccc(F)cc23)NC(=O)[C@@H](C)NC1=O [Compound 093] (cyclo(AYP[X1][Nva][dA][Trp(5-F)][Trp(5-F)]P)) |
| 1 to 12.1 | C[C@@H]1NC(=O)[C@@H]2CCCN2C(=O)[C@H](Cc2c[nH]c3ccc(F)cc23)NC(=O)[C@H](Cc2c[nH]c3ccc(F)cc23)NC(=O)CNC(=O)CCCCCSCc2ccc(cc2)CSCCNC(=O)C2CCCN2C(=O)[C@H](Cc2ccc(O)cc2)NC1=O (some centres unmarked) [Compound 099] (cyclo(AY[ξP][X9]G[Trp(5-F)][Trp(5-F)]P)) |
| 0.1 to 1 | C[C@@H]1NC(=O)[C@@H]2CCCN2C(=O)[C@H](Cc2c[nH]c3ccc(F)cc23)NC(=O)[C@H](Cc2c[nH]c3ccc(F)cc23)NC(=O)[C@@H](C)NC(=O)[C@H](C(C)(C)C)NC(=O)CCSCc2cccc(c2)CSCCNC(=O)[C@@H]2CCCN2C(=O)[C@H](Cc2ccc(O)cc2)NC1=O [Compound 095] (cyclo(AYP[X1][Tle][dA][Trp(5-F)][Trp(5-F)]P)) |
| 0.1 to 1 | C[C@@H]1NC(=O)[C@@H]2C=CCN2C(=O)[C@H](Cc2c[nH]c3ccc(F)cc23)NC(=O)[C@H](Cc2c[nH]c3ccc(F)cc23)NC(=O)[C@@H](C)NC(=O)[C@H](CCCCN)NC(=O)CCSCc2cccc(c2)CSC[C@@H](C(N)=O)NC(=O)[C@@H]2CCCN2C(=O)[C@H](Cc2ccc(O)cc2)NC1=O [Compound 038] ([Mpa]K[dA][Trp(5-F)][Trp(5-F)][ΔPro]AYPC-NH2; linker 1-10 via mXylylene) |
| 0.1 to 1 | C[C@@H]1NC(=O)[C@@H]2CCCN2C(=O)[C@H](C2Cc3ccccc3C2)NC(=O)[C@H](Cc2c[nH]c3ccc(F)cc23)NC(=O)CNC(=O)[C@H](CCCCN)NC(=O)CCSCc2cccc(c2)CSC[C@@H](C(N)=O)NC(=O)[C@@H]2CCCN2C(=O)[C@H](Cc2ccc(O)cc2)NC1=O [Compound 008] ([Mpa]KG[Trp(5-F)][Igl]PAYPC-NH2; linker 1-10 via mXylylene) |
| 0.1 to 1 | C[C@@H]1NC(=O)[C@@H]2CCCN2C(=O)[C@H](Cc2c[nH]c3ccc(F)cc23)NC(=O)[C@H](Cc2c[nH]c3ccc(F)cc23)NC(=O)[C@@H](C)NC(=O)[C@@H]2CCCN2C(=O)CCSCc2cccc(c2)CSCCNC(=O)[C@@H]2CCCN2C(=O)[C@H](Cc2cccc3ccccc23)NC1=O [Compound 054] (cyclo([1Nal]P[X1]P[dA][Trp(5-F)][Trp(5-F)]PA)) |
| 0.1 to 1 | C[C@@H]1NC(=O)[C@@H]2CCCN2C(=O)[C@H](Cc2c[nH]c3ccc(F)cc23)NC(=O)[C@H](Cc2c[nH]c3ccc(F)cc23)NC(=O)[C@@H](C)NC(=O)C(C)(C)NC(=O)CCSCc2cccc(c2)CSCCNC(=O)[C@@H]2CCCN2C(=O)[C@H](Cc2ccc(O)cc2)NC1=O [Compound 094] (cyclo(AYP[X1][Aib][dA][Trp(5-F)][Trp(5-F)]P)) |
| 0.1 to 1 | C[C@@H]1NC(=O)[C@@H]2CCCN2C(=O)[C@H](Cc2c[nH]c3ccc(F)cc23)NC(=O)[C@H](Cc2c[nH]c3ccc(F)cc23)NC(=O)[C@@H](C)NC(=O)C2(CCOCC2)NC(=O)CCSCc2cccc(c2)CSCCNC(=O)[C@@H]2CCCN2C(=O)[C@H](Cc2ccc(O)cc2)NC1=O [Compound 031] (cyclo(AYP[X1][Thp][dA][Trp(5-F)][Trp(5-F)]P)) |
| 0.001 to 0.1 | C[C@@H]1NC(=O)[C@@H]2CCCN2C(=O)[C@H](Cc2c[nH]c3ccc(F)cc23)NC(=O)[C@H](Cc2c[nH]c3ccc(F)cc23)NC(=O)[C@@H](C)NC(=O)[C@@H]2CCCN2C(=O)CCSCc2cccc(c2)CSCCNC(=O)[C@@H]2CCCN2C(=O)[C@H](Cc2ccccc2)N(C)C1=O [Compound 051] (cyclo(A[NMeF]P[X1]P[dA][Trp(5-F)][Trp(5-F)]P)) |
| 1 to 12.1 | NCCCC[C@@H]1NC(=O)CCSCc2cccc(c2)CSC[C@@H](C(N)=O)NC(=O)[C@@H]2CCCN2C(=O)[C@@H]2CCCN2C(=O)[C@@H]2CCCN2C(=O)[C@@H]2CCCN2C(=O)[C@H](Cc2c[nH]c3ccc(F)cc23)CC(=O)[C@H](Cc2c[nH]c3ccc(F)cc23)NC(=O)CNC1=O [Compound 033] |
| 21 to 50 | C[C@@H]1NC(=O)CCSCc2cccc(c2)CSCCNC(=O)[C@@H]2CCCN2C(=O)[C@H](Cc2ccccc2)N(C)C(=O)[C@H](C)NC(=O)[C@@H]2CCCCN2C(=O)[C@H](Cc2c[nH]c3ccc(F)cc23)NC(=O)[C@H](Cc2c[nH]c3ccc(F)cc23)NC(=O)[C@@H](C)NC1=O [Compound 088] (cyclo(A[NMeF]P[X1]A[dA][Trp(5-F)][Trp(5-F)][Pip])) |

Source: US11814445B2, “Cyclic polypeptides for PCSK9 inhibition” (Ra Pharmaceuticals, Inc., priority 2018, dated 2023)
